# According to patent publication US20140066365A1, “USE OF CALIXARENES ASSOCIATED WITH AN ANTIBIOTIC IN THE TREATMENT OF BACTERIAL INFECTIONS” (priority 2011, published 2014):
# Where two headings read alike, the source gives them in different places.
# How the values were obtained:
# [1] = test system: ESBL-producing strain of Escherichia coli, having an associated resistance to the aminoglycosides (EcR3); experiment: MIC of the compounds used alone, microdilution in a liquid medium (CLSI); assay type: cell-based; conditions: Escherichia coli, antibiotic alone (second value of cell), read-out: Initial MICs
# Excerpt: (§1) The MICs of the antibiotics were previously defined for each strain, by the method of microdilution in a liquid medium (CLSI (Clinical and Laboratory Standards Institute), 2003).
# [2] = test system: Escherichia coli strain ATCC 25922 (wild type); experiment: as above; assay type: cell-based; conditions: Escherichia coli, ATCC25922; antibiotic alone (second value of cell); E. coli ATCC 25922; read-out: Initial MICs
# Excerpt: as §1
# [3] = test system: Pseudomonas aeruginosa strain ATCC 27853 (wild type); experiment: as above; assay type: cell-based; conditions: antibiotic alone (second value of cell), P. aeruginosa ATCC 27853
# Excerpt: as §1
# [4] = test system: Pseudomonas aeruginosa strain PaR3; experiment: as above; assay type: cell-based; conditions: antibiotic alone (second value of cell)
# Excerpt: as §1
# [5] = test system: cephalosporinase-hyperproducing strain of Escherichia coli (EcR2); experiment: as above; assay type: cell-based; conditions: Escherichia coli, antibiotic alone (second value of cell), read-out: Initial MICs
# Excerpt: as §1
# [6] = test system: mucoid strain of Pseudomonas aeruginosa PaR5; experiment: as above; assay type: cell-based; conditions: antibiotic alone (second value of cell)
# Excerpt: as §1
# [7] = test system: penicillinase-producing strain of Escherichia coli without associated resistance (EcR1); experiment: as above; assay type: cell-based; conditions: Escherichia coli, antibiotic alone (second value of cell), read-out: Initial MICs
# Excerpt: as §1
# [8] = test system: Pseudomonas aeruginosa strain PaR2; experiment: microbe, parasite or virus in culture; assay type: cell-based; conditions: antibiotic alone (second value of cell)
# Excerpt: as §1
# [9] = test system: EcR1: Penicillinase-Producing Escherichia coli without Associated Resistance; experiment: Antibiogram by the disk diffusion technique; assay type: cell-based; conditions: for MIC mg/L (diameter in mm): EcR1, cells that print a diameter, Table A2; for Diameter: EcR1, disk diffusion
# Protocol: 5.1 EcR1: Penicillinase-Producing Escherichia coli without Associated Resistance The bacterial and antibiogramidentification is carried out by the VITEK 2 system (bioMérieux) and by the disk diffusion technique.
# [10] = test system: EcR3: ESBL-Producing Escherichia coli; experiment: Antibiogram by the disk diffusion technique; assay type: cell-based; conditions: for Diameter: Table C1; for diameter in mm: Table C2
# Protocol: The bacterial and antibiogramidentification is carried out by the VITEK 2 system (bioMerieux) and by the disk diffusion technique
# [11] = test system: SaR1: Meticillin-Resistant Staphylococcus aureus without Associated Resistance; experiment: Antibiogram, MIC by the VITEK 2 system; assay type: cell-based; conditions: for MIC mg/L: Table D2; for MIC: Staphylococcus aureus
# Protocol: (§2) The bacterial and antibiogramidentification is carried out by the VITEK 2 system (bioMérieux)
# [12] = test system: PaR5: Pseudomonas aeruginosa; experiment: Antibiogram by the disk diffusion technique; assay type: cell-based; conditions: for diameter in mm: disk diffusion inhibition diameter, strain PaR5
# Protocol: (§3) The bacterial and antibiogramidentification is carried out by the VITEK 2 system (bioMérieux) and by the disk diffusion technique
# [13] = test system: SaR3: Meticillin-Resistant Staphylococcus aureus; experiment: Antibiogram by the disk diffusion technique; assay type: cell-based; conditions: for diameter in mm: Table E2
# Protocol: as §3
# [14] = test system: SaR4: Meticillin-Resistant Staphylococcus aureus; experiment: Antibiogram, MIC by the VITEK 2 system; assay type: cell-based; conditions: for MIC: Staphylococcus aureus
# Protocol: as §3
# [15] = test system: PaR2: Pseudomonas aeruginosa; assay type: cell-based; conditions: for Diameter: Table G1; for diameter in mm: Table G2
# Protocol: as §3
# [16] = test system: SaR1: Meticillin-Resistant Staphylococcus aureus without Associated Resistance; experiment: Antibiogram, inhibition diameter (Table D1); assay type: cell-based
# Protocol: as §2
# [17] = test system: Staphylococcus aureus strain ATCC 29213 (wild type); experiment: MIC of the compounds used alone, microdilution in a liquid medium (CLSI); assay type: cell-based; conditions: Staphylococcus aureus, ATCC29213, read-out: Initial MICs (mg/L)
# Excerpt: as §1
# [18] = as above; assay type: cell-based, Staphylococcus aureus; conditions: Staphylococcus aureus, MRSA
# Excerpt: as §1
# [19] = test system: MRSA strain having a resistance to the aminoglycosides and fluoroquinolones (SaR3); experiment: as above; assay type: cell-based, Staphylococcus aureus; conditions: Staphylococcus aureus, MRSA
# Excerpt: as §1
# [20] = test system: MRSA strain without associated resistance (SaR1); experiment: as above; assay type: cell-based, Staphylococcus aureus; conditions: Staphylococcus aureus, MRSA
# Excerpt: as §1
# [21] = test system: PaR3: Pseudomonas aeruginosa; experiment: Antibiogram, MIC by the VITEK 2 system; assay type: cell-based
# Protocol: as §2
# [22] = Pseudomonas aeruginosa, read-out: MIC
molecule,measurement,setting,value
CO[C@H]1/C=C/O[C@@]2(C)Oc3c(C)c(O)c4c(O)c(c(/C=N/N5CCN(C)CC5)c(O)c4c3C2=O)NC(=O)/C(C)=C\C=C\[C@H](C)[C@H](O)[C@@H](C)[C@@H](O)[C@@H](C)[C@H](OC(C)=O)[C@@H]1C [Rifampicin],MIC,[1],4 µg/mL
same,MIC,[2],4 µg/mL
same,MIC,"[3]; Pseudomonas aeruginosa, ATCC27853, read-out: MIC",64 µg/mL
same,MIC,[4]; [22],32 µg/mL
same,MIC,[5],2 µg/mL
same,MIC,[6]; [22],16 µg/mL
same,MIC,[7],4 µg/mL
same,MIC,[8]; [22],64 µg/mL
same,MIC mg/L (diameter in mm),[9],16 mm
same,Diameter,[9]; Table A1,16 mm
same,Diameter,[10],15 mm
same,diameter in mm,[10],15 mm
same,MIC mg/L,[11]; SaR1,≦0.5 mg/L
same,MIC,"[11]; SaR1, Table D1, read-out: MIC",≤ 0.5 mg/L
same,Diameter,"[12]; PaR5, Table I1",13 mm
same,diameter in mm,[12],13 mm
same,Diameter,[13]; Table E1,31 mm
same,diameter in mm,[13],31 mm
same,MIC,"[14]; SaR4, Table F1, read-out: MIC",≤ 1 mg/L
same,MIC,"[14]; SaR4, Table F2, MIC, read-out: MIC",≤ 1 mg/L
same,Diameter,[15],25 mm
same,diameter in mm,[15],25 mm
same,Diameter,[16],30 mm
CN[C@H](CC(C)C)C(=O)N[C@H]1C(=O)N[C@@H](CC(N)=O)C(=O)N[C@H]2C(=O)N[C@H]3C(=O)N[C@H](C(=O)N[C@H](C(=O)O)c4cc(O)cc(O)c4-c4cc3ccc4O)[C@H](O)c3ccc(c(Cl)c3)Oc3cc2cc(c3O[C@@H]2O[C@H](CO)[C@@H](O)[C@H](O)[C@H]2O[C@H]2C[C@](C)(N)[C@H](O)[C@H](C)O2)Oc2ccc(cc2Cl)[C@H]1O [Vancomycin],MIC,[17],0.5 mg/L
same,MIC,[18],0.25 µg/mL
same,MIC,[19],0.25 µg/mL
same,MIC,[20],0.25 µg/mL
same,CA-SFM Interpretation,"[11]; SaR1, Cc CA-SFM 2011",Susceptible
same,CLSI Interpretation,"[11]; SaR1, Cc CLSI 2011",Susceptible
same,EUCAST Interpretation,"[11]; SaR1, Cc EUCAST 2011",Susceptible
same,Results,"[11]; SaR1, Table D1, from MIC",Susceptible
same,MIC mg/L,[11]; SaR1,≦1 mg/L
same,MIC,[11]; read-out: MIC mg/L,≤ 1 mg/L
same,CA-SFM Interpretation,[13]; Cd CA-SFM 2011,Susceptible
same,Results,"[13]; Table E1, against Dmin Dmax",Susceptible
same,diameter in mm,[13],28 mm
same,Results,"[14]; SaR4, Table F1, MIC",Susceptible
same,CA-SFM Interpretation,"[14]; SaR4, from MIC, Cc CA-SFM 2011",Susceptible
same,CLSI Interpretation,"[14]; SaR4, from MIC, Cc CLSI 2011",Susceptible
same,EUCAST Interpretation,"[14]; SaR4, from MIC, Cc EUCAST 2011",Susceptible
same,MIC,[14],1 mg/L
same,MIC,[14]; read-out: MIC mg/L,1 mg/L
same,Results,"[16]; from diameter, against Dmin Dmax",Susceptible
Colimycin,MIC,[3],4 µg/mL
same,MIC,[4],8 µg/mL
same,MIC,[6],16 µg/mL
same,MIC,[8],8 µg/mL
same,MIC mg/L (diameter in mm),[9],15 mm
same,CA-SFM Interpretation,"[9]; EcR1, diameter against CA-SFM 2011 limits",Susceptible
same,EUCAST Interpretation,"[9]; EcR1, diameter against EUCAST 2011 limits",Resistant
same,Diameter,[9]; Table A1,15 mm
same,Results,"[9]; EcR1, interpretation of the diameter against Dmin Dmax, Table A1",Susceptible
same,CA-SFM Interpretation,[10]; Cd CA-SFM 2011,Susceptible
same,Diameter,[10],16 mm
same,Results,"[10]; Table C1, against Dmin Dmax",Susceptible
same,diameter in mm,[10],16 mm
same,CA-SFM Interpretation,[21]; Cc CA-SFM 2011,Susceptible
same,CLSI Interpretation,[21]; Cc CLSI 2011,Susceptible
same,EUCAST Interpretation,[21]; Cc EUCAST 2011,Susceptible
same,MIC,[21]; Table H1,≦0.5
same,Results,[21]; Table H1,Susceptible
same,MIC mg/L,[21]; Table H2,≦0.5 mg/L
same,Diameter,"[12]; PaR5, Table I1",23 mm
same,Results,"[12]; PaR5, Table I1, against Dmin-Dmax",Susceptible
same,diameter in mm,[12],23 mm
same,CA-SFM Interpretation,"[12]; disk diffusion, PaR5, versus critical diameter CA-SFM 2011",Susceptible
same,CLSI Interpretation,"[12]; disk diffusion, PaR5, versus critical diameter CLSI 2011",Susceptible
same,CA-SFM Interpretation,[15]; Cd CA-SFM 2011,Susceptible
same,CLSI Interpretation,[15]; Cd CLSI 2011,Susceptible
same,Diameter,[15],20 mm
same,Results,"[15]; Table G1, against Dmin-Dmax",Susceptible
same,diameter in mm,[15],20 mm
